Results as given in ChEMBL document CHEMBL1148856, “Thiazolone-acylsulfonamides as novel HCV NS5B polymerase allosteric inhibitors: convergence of structure-based drug design and X-ray crystallographic study” (Bioorg Med Chem Lett, 2007).

Test: Inhibition of HCV BK NS5B polymerase
Set-up: species or system Hepacivirus hominis

IC50	Structure (SMILES)
9.3 µM	CCc1ccc(/C=C2\SC(N[C@H](C(=O)NS(=O)(=O)c3ccc(C)cc3)c3ccc(F)cc3)=NC2=O)o1 (stereo in doubt)
14 µM	CCc1ccc(/C=C2\SC(N[C@H](C(=O)NS(=O)(=O)c3cccc(C(=O)OC)c3)c3ccc(F)cc3)=NC2=O)o1 (stereo in doubt)
12 µM	CCc1ccc(/C=C2\SC(N[C@H](C(=O)NS(=O)(=O)c3cccc(C(=O)O)c3)c3ccc(F)cc3)=NC2=O)o1 (stereo in doubt)
6.6 µM	CCc1ccc(/C=C2\SC(N[C@H](C(=O)NS(=O)(=O)c3ccc([N+](=O)[O-])cc3)c3ccc(Cl)cc3Cl)=NC2=O)o1 (stereo in doubt)
15 µM	CCc1ccc(/C=C2\SC(N[C@H](C(=O)NS(=O)(=O)c3cccc([N+](=O)[O-])c3)c3ccc(F)cc3)=NC2=O)o1 (stereo in doubt)
16 µM	CCc1ccc(/C=C2\SC(N[C@H](CS(=O)(=O)NC(=O)c3ccccc3)c3ccccc3)=NC2=O)o1 (stereo in doubt)
